# Reference: patent publication US12419858B2, “Salt of terphenyl compound” (Taiho Pharmaceutical Co., Ltd., priority 2019, dated 2025)
# Columns and labels:
# [1] = Solid stability test (accelerated test); details: for Purity, variation (Y) − (X) / Total mass of analogous substance, variation (Y) − (X): 4 weeks at 60° C. sealed versus before storage; for solid stability (in words): 4 weeks at 60° C.; for solid stability (in words) / Purity, 4 weeks after storage at 60° C. on sealed condition (Y) / Total mass of analogous substance, 4 weeks after storage at 60° C. on sealed condition (Y): sealed; for Purity, 4 weeks after storage at 60° C. on sealed condition (Y) / Total mass of analogous substance, 4 weeks after storage at 60° C. on sealed condition (Y) / Purity, before storage (X) / Total mass of analogous substance, before storage (X): HPLC; for Purity, 4 weeks after storage at 60° C. on sealed condition (Y) / Total mass of analogous substance, 4 weeks after storage at 60° C. on sealed condition (Y): 4 weeks at 60° C./ambient humidity
# Experimental: Mass of analogous substance in the sample solution was measured by HPLC analysis.
# [2] = Moisture absorption/desorption test; details: 25° C.; for hygroscopicity / moisture absorption-desorption behaviour (in words): 5% RH to 95% RH and back; for weight change at maximum (moisture absorption/desorption): relative humidity from 5 to 95%
# Experimental: Moisture absorption/desorption test was carried out on the following test conditions. A dedicated quartz holder was filled with about 10 mg of sample, and a weight of the sample at each humidity was measured and recorded in a continuous manner under the following conditions.
# in vivo = assay: in vivo
# Experimental: Each drug was administered to the animal at a dose of 32 mg/5 mL/kg.
Compound,"Purity, variation (Y) − (X) [1]","Total mass of analogous substance, variation (Y) − (X) [1]",solid stability (in words) [1],"Purity, 4 weeks after storage at 60° C. on sealed condition (Y) [1]","Total mass of analogous substance, 4 weeks after storage at 60° C. on sealed condition (Y) [1]","Purity, before storage (X) [1]","Total mass of analogous substance, before storage (X) [1]",hygroscopicity / moisture absorption-desorption behaviour (in words) [2],hygroscopicity / moisture absorption-desorption behaviour (in words) ([2]; listed as free form),weight change at maximum (moisture absorption/desorption) [2],"Cmax (in vivo; rat, in vivo, 32 mg/kg)","Tmax (in vivo; rat, in vivo, 32 mg/kg)","AUC (in vivo; rats, dose of 32 mg/5 mL/kg)","Cmax (in vivo; rats, dose of 32 mg/5 mL/kg)","Tmax (in vivo; rats, dose of 32 mg/5 mL/kg)",solid stability (in words) ([1]; listed as benzoate)
"CC(C)(O)Cc1ccc(-c2ccc(C(=O)N3CC[C@H](N)C3)cc2-c2ccc(C#N)c(F)c2)c(F)c1 [free form of Compound A, 4-[5-[(3S)-3-aminopyrrolidine-1-carbonyl]-2-[2-fluoro-4-(2-hydroxy-2-methyl-propyl)phenyl]phenyl]-2-fluoro-benzonitrile]",−0.37%,+0.37%,poor solid stability,98.15%,1.85%,98.52%,1.48%,had the characteristic of channel hydrate,characteristic of hygroscopicity,about +5.6 % w/w,2.56 µM,4 h,–,–,–,–
"C/C=C/C=C/C(=O)O.CC(C)(O)Cc1ccc(-c2ccc(C(=O)N3CC[C@H](N)C3)cc2-c2ccc(C#N)c(F)c2)c(F)c1 [sorbic acid salt of Compound A, sorbic acid salt of 4-[5-[(3S)-3-aminopyrrolidine-1-carbonyl]-2-[2-fluoro-4-(2-hydroxy-2-methyl-propyl)phenyl]phenyl]-2-fluoro-benzonitrile]",−0.64%,+0.64%,stable,97.99%,2.01%,98.63%,1.37%,less adsorptive and/or disorptive of moisture,–,+1.9 % w/w,–,–,11.64 µM·h,2.03 µM,2.3 h,–
"CC(C)(O)Cc1ccc(-c2ccc(C(=O)N3CC[C@H](N)C3)cc2-c2ccc(C#N)c(F)c2)c(F)c1.O=C(O)c1ccccc1 [benzoic acid salt of Compound A, benzoic acid salt of 4-[5-[(3S)-3-aminopyrrolidine-1-carbonyl]-2-[2-fluoro-4-(2-hydroxy-2-methyl-propyl)phenyl]phenyl]-2-fluoro-benzonitrile]",+0.13%,−0.13%,almost no analogous substance was generated,98.06%,1.94%,97.93%,2.07%,less adsorptive and/or disorptive of moisture,–,+0.7 % w/w,–,–,–,2.68 µM,2.7 h,stable
